Consider one compound from ChEMBL document CHEMBL5727805, “Bicyclic quinazolinone derivatives” (2020).

Each structure is given as a SMILES string.

This test concerns the target Autotaxin (Homo sapiens, UniProt Q13822). In words: Human ATX Enzyme Inhibition Assay: ATX inhibition was measured by a fluorescence quenching assay using a specifically labeled substrate analogue (MR121 substrate). To obtain this MR121 substrate, BOC and TBS protected 6-amino-hexanoic acid (R)-3-({2-[3-(2-{2-[2-(2-amino-ethoxy)-ethoxy]-ethoxy}-ethoxy)-propionylamino]-ethoxy}-hydroxy-phosphoryloxy)-2-hydroxy-propyl ester (Ferguson et al., Org. Lett. 2006, 8, 2023) was labeled with MR121 fluorophore [CAS RN 185308-24-1], 1-(3-carboxypropyl)-11-ethyl-1,2,3,4,8,9,10,11-octahydro-dipyrido[3,2-b:2′,3′-i]phenoxazin-13-ium) on the free amine of the ethanolamine side and then, after deprotection, subsequently with tryptophan on the side of the aminohexanoic acid.Assay working solutions were made as follows:Assay buffer (50 mM Tris-HCl, 140 mM NaCl, 5 mM KCl, 1 mM CaCl2, 1 mM MgCl2, 0.01% Triton-X-100, pH 8.0;ATX solution: ATX (human His-tagged) stock solution (1.08 mg/mL in 20 mM bicine, pH 8.5, 0.15 M NaCl, 10% glycerol, 0.3% CHAPS, 0.02% NaN3), diluted to 1.4-2.5× final concentration in assay buffer;MR121 substrate solution: MR121 substrate stock solution (800 μM MR121 substrate in DMSO), diluted to 2-5× final concentration in assay buffer.Test compounds (10 mM stock in DMSO, 8 μL) were obtained in 384 well sample plates (Corning Costar #3655) and diluted with 8 μL DMSO. […].

Consider `CC(=O)N1CCCN(c2ccc3ncn(CC(=O)NCc4ccc(Cl)c(Cl)c4)c(=O)c3c2)CC1`, for which the midpoint of inhibition, the IC50, lay at 35 nM.
